Reference: patent US10570122B2, “Compounds with anti-tumoral activity” (AB Science, priority 2015, dated 2020)
“Also recorded” adds a separate entry of the source.

How the values were obtained:
REC1 = assay: CellTiter-Blue cell-based survival/proliferation assay, REC1; conditions: Homo sapiens, Lymphoma cell line REC1, 48 h, read-out: Anti-tumoral activity (measured IC50) REC1
In short: (§1)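 Tenfold compound dilutions (0–10 μM) were added to 1·10^4 cells/well. Plates incubated 48 h at 37 °C. CellTiter-Blue reduction (4 h, 37 °C) was read as fluorescence at 590 nm, background-corrected with a cell-free blank.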

A375 = assay: CellTiter-Blue cell-based survival/proliferation assay, A375; conditions: Homo sapiens, A-375; A375 melanoma cell line, 48 h
In short: as §1

U87MG = assay: CellTiter-Blue cell-based survival/proliferation assay, U87MG; conditions: Homo sapiens, U-87 MG; U87_MG glioblastoma cell line, 48 h
In short: as §1

MESSA = assay: CellTiter-Blue cell-based survival/proliferation assay, MESSA; conditions: Homo sapiens, MES-SA; MESSA ovary tumor cell line, 48 h
In short: as §1

A4513 = assay: CellTiter-Blue cell-based survival/proliferation assay, A4513; conditions: Homo sapiens; A4513 Ewing cell line, 48 h
In short: as §1

ACHN = assay: CellTiter-Blue cell-based survival/proliferation assay, ACHN; conditions: Homo sapiens; ACHN kidney tumor cell line, 48 h
In short: as §1

HGC27 = assay: CellTiter-Blue cell-based survival/proliferation assay, HGC27; conditions: Homo sapiens, HGC-27; HGC27 stomach tumor cell line, 48 h
In short: as §1

[1] = system: human kinases (456 kinases); assay: KINOMEscan in vitro kinase profiling; assay type: binding; conditions: for Interaction with the 456 kinases tested: screened at 1 μM; for Number of hits/number of kinases, S1: S(1): kinases with % Ctrl<1; for S-score, S1: S(1)=(number of kinases with % Ctrl<1)/(number of kinases tested); for Number of hits/number of kinases, S10: S(10): kinases with % Ctrl<10; for S-score, S10: S(10)=(number of kinases with % Ctrl<10)/(number of kinases tested); for Kinase targets, S1: kinases with % Ctrl<1
Description: An in vitro kinase profiling was conducted in order to evidence the absence of protein kinase inhibition by the compounds of the invention.
DiscoveRx (Ambit Biosciences) has developed a high-throughput system (KINOMEscan™) for screening of compounds against large numbers of human kinases (456 kinases).
The compounds of the invention were screened at the concentration of 1 μM, and results for primary screen binding interactions were reported as percent control (% Ctrl), where lower numbers indicate stronger hits. DMSO is used as a negative control (100% Ctrl) while a high affinity compound is used as a positive control (0% Ctrl). % Ctrl is calculated as follow:
[formula] Selectivity Score or S-score is a quantitative measure of compound selectivity. It is calculated by dividing the number of kinases that compounds bind to by the total number of distinct kinases tested, excluding mutant variants. S(10)=(number of kinases with % Ctrl<10)/(number of kinases tested), S(1)=(number of kinases with % Ctrl<1)/(number of kinases tested).

OPM2 = assay: CellTiter-Blue cell-based survival/proliferation assay, OPM2; conditions: Homo sapiens, OPM-2, Myeloma cell line OPM2, 48 h, read-out: Anti-tumoral activity (measured IC50) OPM2
In short: as §1

H1299 = assay: CellTiter-Blue cell-based survival/proliferation assay, H1299; conditions: Homo sapiens, NCI-H1299; H1299 lung tumor cell line, 48 h
In short: as §1

A549 = assay: CellTiter-Blue cell-based survival/proliferation assay, A549; conditions: Homo sapiens; A549 lung tumor cell line, 48 h
In short: as §1

BXPC3 = assay: CellTiter-Blue cell-based survival/proliferation assay, BXPC3; conditions: Homo sapiens, BXPC-3; BXPC3 pancreas tumor cell line, 48 h
In short: as §1

DLD1 = assay: CellTiter-Blue cell-based survival/proliferation assay, DLD1; conditions: Homo sapiens, DLD-1; DLD_1 colorectal tumor cell line, 48 h
In short: as §1

KARPAS299 = assay: CellTiter-Blue cell-based survival/proliferation assay, KARPAS299; conditions: Homo sapiens, KARPAS-299, Lymphoma cell line KARPAS299, 48 h, read-out: Anti-tumoral activity (measured IC50) KARPAS299
In short: as §1

HL60 = assay: CellTiter-Blue cell-based survival/proliferation assay, HL60; conditions: Homo sapiens, HL-60, Leukemia cell line HL60, 48 h, read-out: Anti-tumoral activity (measured IC50) HL60
In short: as §1

TOV112D = assay: CellTiter-Blue cell-based survival/proliferation assay, TOV112D; conditions: Homo sapiens; TOV112D ovary tumor cell line, 48 h
In short: as §1

PLCPRF5 = assay: CellTiter-Blue cell-based survival/proliferation assay, PLCPRF5; conditions: Homo sapiens, PLC-PRF-5; PLC_PRF5 liver tumor cell line, 48 h
In short: as §1

HCT116 = assay: CellTiter-Blue cell-based survival/proliferation assay, HCT116; conditions: Homo sapiens, HCT-116; HCT116 colorectal tumor cell line, 48 h
In short: as §1

HUT78 = assay: CellTiter-Blue cell-based survival/proliferation assay, HUT78; conditions: Homo sapiens, Lymphoma cell line HUT78, 48 h, read-out: Anti-tumoral activity (measured IC50) HUT78
In short: as §1

U2OS = assay: CellTiter-Blue cell-based survival/proliferation assay, U2OS; conditions: Homo sapiens; U2OS osteosarcoma cell line, 48 h
In short: as §1

HEPG2 = assay: CellTiter-Blue cell-based survival/proliferation assay, HEPG2; conditions: Homo sapiens; HEPG2 liver tumor cell line, 48 h
In short: as §1

CALU6 = assay: CellTiter-Blue cell-based survival/proliferation assay, CALU6; conditions: Homo sapiens, Calu-6; CALU6 lung tumor cell line, 48 h
In short: as §1

DU145 = assay: CellTiter-Blue cell-based survival/proliferation assay, DU145; conditions: Homo sapiens, DU-145; DU145 prostate tumor cell line, 48 h
In short: as §1

A498 = assay: CellTiter-Blue cell-based survival/proliferation assay, A498; conditions: Homo sapiens; A498 kidney tumor cell line, 48 h
In short: as §1

MDAMB231 = assay: CellTiter-Blue cell-based survival/proliferation assay, MDAMB231; conditions: Homo sapiens, MDA-MB-231; MDAMB231 breast tumor cell line, 48 h
In short: as §1

U118 = assay: CellTiter-Blue cell-based survival/proliferation assay, U118; conditions: Homo sapiens; U118 glioblastoma cell line, 48 h
In short: as §1

CLS354 = assay: CellTiter-Blue cell-based survival/proliferation assay, CLS354; conditions: Homo sapiens, CLS-354; CLS354_4 head & neck tumor cell line, 48 h
In short: as §1

SW579 = assay: CellTiter-Blue cell-based survival/proliferation assay, SW579; conditions: Homo sapiens; SW579 head & neck tumor cell line, 48 h
In short: as §1

PANC1 = assay: CellTiter-Blue cell-based survival/proliferation assay, PANC1; conditions: Homo sapiens, PANC-1; PANC_1 pancreas tumor cell line, 48 h
In short: as §1

HEP2 = assay: CellTiter-Blue cell-based survival/proliferation assay, HEP2; conditions: Homo sapiens, HEp-2; HEP2 head & neck tumor cell line, 48 h
In short: as §1

PC3 = assay: CellTiter-Blue cell-based survival/proliferation assay, PC3; conditions: Homo sapiens, PC-3; PC3 prostate tumor cell line, 48 h
In short: as §1

AGS = assay: CellTiter-Blue cell-based survival/proliferation assay, AGS; conditions: Homo sapiens; AGS stomach tumor cell line, 48 h
In short: as §1

BT20 = assay: CellTiter-Blue cell-based survival/proliferation assay, BT20; conditions: Homo sapiens, BT-20; BT20 breast tumor cell line, 48 h
In short: as §1

MELWO = assay: CellTiter-Blue cell-based survival/proliferation assay, MELWO; conditions: Homo sapiens; MEL_WO melanoma cell line, 48 h
In short: as §1

RL = assay: CellTiter-Blue cell-based survival/proliferation assay, RL; conditions: Homo sapiens, Lymphoma cell line RL, 48 h, read-out: Anti-tumoral activity (measured IC50) RL
Description: Cell-Based Proliferation Screening of Compounds
CellTiter-Blue cell-based survival/proliferation assay (Promega G8080) was performed on tumor cell lines. A total of 1·10^4 cells/well/50 μl were seeded in a 96-wells plate. Treatment was initiated by addition of a 2× drug solution of 1/10 serial dilutions ranging from 0 to 10 μM. Cells were grown for 48 h at 37° C. and then incubated with 10 μl/well of Promega CellTiter-Bleue reagent for 4 h at 37° C. The amount of resorufin dye formed was quantified by its fluorescence emission at 590 nm using a scanning multiwell spectrophotometer (OPTIMA, BMG labtech, France). A blank well without cells was used as a background control for the spectrophotometer.

[2] = system: panel of about 34 human tumor cell lines; assay: Cell-based proliferation screening on panel of tumor cell lines; conditions: solid tumor cell line, cell line unknown, 48 h, read-out: IC50, solid tumor cell line of column 6 (last section of Table 3)
In short: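 CellTiter-Blue survival assay with 1·10^4 cells/well, each line treated 48 h at 37° C with 1/10 serial dilutions from 0 to 10 μM. Resorufin formed during a 4 h reagent incubation is read by fluorescence at 590 nm. A cell-free blank serves as background.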

Compound	IC50 (MESSA)	IC50 (ACHN)	IC50 (HGC27)	IC50 (OPM2)	IC50 (H1299)	IC50 (A549)	IC50 (BXPC3)	IC50 (DLD1)	IC50 (KARPAS299)	IC50 (HL60)	IC50 (TOV112D)	IC50 (PLCPRF5)	IC50 (HCT116)	IC50 (HUT78)	IC50 (HEPG2)	IC50 (CALU6)	IC50 (DU145)	IC50 (A498)	IC50 (MDAMB231)	IC50 (CLS354)	also measured
CCOCc1ccc(C)c(Nc2nc(-c3ccc(N4CCNC4=O)cc3)cs2)c1 [Example 003, 1-{4-[2-(5-Ethoxymethyl-(2-methyl-phenylamino))-thiazol-4-yl]-phenyl}-imidazolidin-2-one]	100 to 500 nM	≤ 100 nM	> 1000 nM	≤ 100 nM	> 1000 nM	> 1000 nM	≤ 100 nM	≤ 100 nM	≤ 100 nM	≤ 100 nM	≤ 100 nM	> 1000 nM	500 to 1000 nM	≤ 100 nM	> 1000 nM	> 1000 nM	> 1000 nM	≤ 100 nM	≤ 100 nM	≤ 100 nM	IC50 (REC1): ≤ 100 nM; IC50 (A375): ≤ 100 nM; IC50 (U87MG): > 1000 nM; IC50 (A4513): ≤ 100 nM; Interaction with the 456 kinases tested [1]: do not efficiently interact; Number of hits/number of kinases, S1 ([1]; tested at 1 μM): 1/456; S-score, S1 ([1]; tested at 1 μM): 0.002; Number of hits/number of kinases, S10 ([1]; tested at 1 μM): 4/456; S-score, S10 ([1]; tested at 1 μM): 0.009; Kinase targets, S1 ([1]; tested at 1 μM): PDGFRB; Kinase targets, S10 ([1]; tested at 1 μM, kinases with % Ctrl<10): KIT, KIT V559D,; also recorded: KIT L576P; IC50 (U2OS): > 1000 nM; IC50 (U118): > 1000 nM; IC50 (SW579): > 1000 nM; IC50 (PANC1): > 1000 nM; IC50 (HEP2): > 1000 nM; IC50 (PC3): ≤ 100 nM; IC50 (AGS): > 1000 nM; IC50 (BT20): > 1000 nM; IC50 (MELWO): ≤ 100 nM
CCOCc1ccc(C)c(Nc2ncc(-c3ccc(N4CCNC4=O)cc3)o2)c1 [Example 006, 1-{4-[2-(5-Ethoxymethyl-(2-methyl-phenylamino))-oxazol-5-yl]-phenyl}-imidazolidin-2-one]	> 1000 nM	≤ 100 nM	> 1000 nM	≤ 100 nM	> 1000 nM	> 1000 nM	≤ 100 nM	≤ 100 nM	≤ 100 nM	≤ 100 nM	≤ 100 nM	> 1000 nM	> 1000 nM	≤ 100 nM	> 1000 nM	> 1000 nM	> 1000 nM	100 to 500 nM	≤ 100 nM	≤ 100 nM	IC50 (REC1): ≤ 100 nM; IC50 (A375): ≤ 100 nM; IC50 (U87MG): > 1000 nM; IC50 (A4513): ≤ 100 nM; Interaction with the 456 kinases tested [1]: do not efficiently interact; Number of hits/number of kinases, S1 ([1]; tested at 1 μM): 0/456; S-score, S1 ([1]; tested at 1 μM): 0.000; Number of hits/number of kinases, S10 ([1]; tested at 1 μM): 0/456; S-score, S10 ([1]; tested at 1 μM): 0.000; Kinase targets, S1 ([1]; tested at 1 μM): None; IC50 (U2OS): 100 to 500 nM; IC50 (U118): > 1000 nM; IC50 (SW579): > 1000 nM; IC50 (PANC1): > 1000 nM; IC50 (HEP2): > 1000 nM; IC50 (PC3): ≤ 100 nM; IC50 (AGS): > 1000 nM; IC50 (BT20): 100 to 500 nM; IC50 (MELWO): ≤ 100 nM
CCOCc1ccc(C)c(Nc2ncc(-c3ccc(-n4ccnc4)cc3)o2)c1 [Example 037, (5-Ethoxymethyl-2-methyl-phenyl)-[5-(4-imidazol-1-yl-phenyl)-oxazol-2-yl]-amine]	> 1000 nM	> 1000 nM	> 1000 nM	> 1000 nM	> 1000 nM	> 1000 nM	> 1000 nM	> 1000 nM	> 1000 nM	> 1000 nM	> 1000 nM	> 1000 nM	> 1000 nM	> 1000 nM	> 1000 nM	> 1000 nM	> 1000 nM	> 1000 nM	> 1000 nM	> 1000 nM	IC50 (RL): > 1000 nM; IC50 [2]: > 1000 nM; IC50 (SW579): > 1000 nM; IC50 (PANC1): > 1000 nM; IC50 (HEP2): > 1000 nM; IC50 (PC3): > 1000 nM; IC50 (AGS): > 1000 nM; IC50 (BT20): > 1000 nM
